Assay results reported in paper PMC3641313 (Korean Journal of Pediatrics, 2013).

Columns and labels:
influenza = format: in vivo, pediatric patients; conditions: proven influenza patients group in the first study period and second study period
[1] = tested on: influenza virus infection; conditions: treatment initiated within 48 hours of the onset of fever; cited from earlier work

Structure (SMILES): CCOC(=O)C1=C[C@@H](OC(CC)CC)[C@H](NC(C)=O)[C@@H](N)C1 [Oseltamivir]
- admission duration, Group A compared with group B (influenza): significant shorter
- frequency in pneumonia, Group A compared with group B (influenza): lesser frequency
- average duration of fever after the initiation of oseltamivir treatment [1]: 1.7 days
- patients afebrile (<37.5℃) within one day [1]: 44%
- patients recovered within two days [1]: 86%
